Measured values published in the supplement of paper PMC10307832.

Experiments:
Assay in all cases: relative viability (nuclei count vs DMSO), 5 days (fraction); higher = more cells survive
Trametinib + Phenformin = compound: CC(=O)Nc1cccc(-n2c(=O)n(C3CC3)c(=O)c3c(Nc4ccc(I)cc4F)n(C)c(=O)c(C)c32)c1 [Trametinib] + N=C(N)NC(=N)NCCc1ccccc1 [Phenformin] (partner 250 µM)
Outline: (§1)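 Lung cancer cell lines, seeded in 1536-well plates, were treated the following day by pin tool with a single drug or with five library-drug doses (not always all listed) in √10 steps on top of a fixed anchor-drug dose. Cells were fixed and nuclei stained in one step after 5 days, and nuclei were counted. Relative viability is the nuclei count for treated wells divided by that for vehicle wells, reported as medians of duplicate plates.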

[1] = compound: CN1C=C(C2=CC=CC=C21)/C=C\3/C4=C(C=CC=N4)NC3=O + CCNC(=O)c1noc(-c2cc(C(C)C)c(O)cc2O)c1-c1ccc(CN2CCOCC2)cc1 [Luminespib] (partner 0.01 µM)
Outline: as §1

[2] = compound: CN1C=C(C2=CC=CC=C21)/C=C\3/C4=C(C=CC=N4)NC3=O + Nc1ncn([C@H]2C[C@H](O)[C@@H](CO)O2)c(=O)n1 [Decitabine] (partner 2 µM)
Outline: as §1

[3] = compound: CN1C=C(C2=CC=CC=C21)/C=C\3/C4=C(C=CC=N4)NC3=O + O=C(c1cc(Cc2n[nH]c(=O)c3ccccc23)ccc1F)N1CCN(C(=O)C2CC2)CC1 [Olaparib] (partner 8 µM)
Outline: as §1

| Cell Line | relative viability (Trametinib + Phenformin; first compound 0.0025 µM) | relative viability (Trametinib + Phenformin; first compound 0.007906 µM) | relative viability (Trametinib + Phenformin; first compound 0.025 µM) | relative viability (Trametinib + Phenformin; first compound 0.07906 µM) | relative viability (Trametinib + Phenformin; first compound 0.25 µM) | relative viability ([1]; first compound 0.02 µM) | relative viability ([1]; first compound 0.06325 µM) | relative viability ([1]; first compound 0.2 µM) | relative viability ([1]; first compound 0.6325 µM) | relative viability ([1]; first compound 2 µM) | relative viability ([2]; first compound 0.02 µM) | relative viability ([2]; first compound 0.06325 µM) | relative viability ([2]; first compound 0.2 µM) | relative viability ([2]; first compound 0.6325 µM) | relative viability ([2]; first compound 2 µM) | relative viability ([3]; first compound 0.02 µM) | relative viability ([3]; first compound 0.06325 µM) | relative viability ([3]; first compound 0.2 µM) | relative viability ([3]; first compound 0.6325 µM) | relative viability ([3]; first compound 2 µM) |
| --- | --- | --- | --- | --- | --- | --- | --- | --- | --- | --- | --- | --- | --- | --- | --- | --- | --- | --- | --- | --- |
| HCC-15 | 0.361 | 0.229 | 0.18 | 0.179 | 0.145 | 0.172 | 0.344 | 0.303 | 0.353 | 0.36 | 0.562 | 0.566 | 0.656 | 0.579 | 0.814 | 0.716 | 0.679 | 0.733 | 0.713 | 0.837 |
| HCC-44 | 0.249 | 0.181 | 0.187 | 0.0805 | 0.0783 | 1.03 | 0.925 | – | 1.02 | 1.02 | 0.877 | 0.938 | 0.95 | 0.962 | 0.838 | 0.908 | 0.954 | 1.02 | 0.997 | 0.942 |
| HCC-78 | 0.678 | 0.501 | 0.482 | 0.489 | 0.401 | – | – | – | – | – | 0.557 | 0.588 | 0.652 | 0.614 | 0.65 | 0.78 | 0.773 | 0.688 | 0.754 | 0.818 |
| HCC-366 | 0.57 | 0.574 | 0.372 | 0.49 | 0.226 | – | – | – | – | – | 0.304 | 0.335 | 0.349 | 0.369 | 0.342 | 0.315 | 0.287 | 0.36 | 0.372 | 0.288 |
| HCC-827 | 0.374 | 0.373 | 0.334 | 0.313 | 0.313 | 0.589 | 0.52 | – | 0.59 | 0.756 | 0.315 | 0.297 | – | 0.327 | 0.297 | 0.624 | 0.61 | – | 0.638 | 0.764 |
| HOP-62 | 0.692 | 0.643 | 0.441 | 0.331 | 0.209 | 0.783 | 0.986 | 0.802 | 0.946 | 0.957 | 0.184 | 0.206 | – | 0.188 | 0.241 | 0.537 | 0.509 | – | 0.968 | 0.629 |
| IA-LM | – | – | – | – | – | – | – | – | – | – | – | – | – | – | – | 0.726 | 0.726 | 0.749 | 0.896 | 0.802 |
| LC-2-ad | 0.625 | 0.543 | 0.5 | 0.427 | 0.338 | 1.05 | 0.885 | 1.05 | 1.22 | 1.07 | 0.772 | 0.826 | 0.783 | 0.861 | 0.817 | 0.658 | 0.705 | 0.722 | 0.72 | 0.663 |
| LCLC-97TM1 | 0.415 | 0.448 | 0.383 | 0.301 | 0.288 | 0.669 | 0.611 | 0.82 | 0.809 | 0.944 | – | 0.189 | 0.205 | 0.208 | 0.241 | – | 0.348 | 0.309 | 0.314 | 0.289 |
| LCLC-103H | 0.319 | 0.349 | 0.318 | 0.269 | 0.307 | 0.933 | 0.809 | 0.934 | 1.07 | 1.17 | 0.724 | 0.732 | 0.684 | 0.696 | 0.732 | 0.764 | 0.727 | 0.801 | 0.825 | 0.808 |
| LK-2 | 0.433 | 0.649 | 0.379 | 0.35 | 0.142 | – | – | – | 0.189 | 0.186 | 0.225 | 0.24 | 0.192 | 0.275 | 0.375 | 0.563 | 0.528 | – | 0.422 | 0.66 |
| LOU-NH91 | 0.685 | 0.752 | 0.661 | 0.364 | 0.294 | 0.335 | 0.302 | 0.352 | 0.307 | 0.266 | 0.77 | 0.799 | 0.771 | 0.713 | 0.788 | 0.906 | 0.871 | 0.883 | 0.841 | 0.901 |
| NCI-H1299 | – | – | – | – | – | – | – | – | – | – | – | – | – | – | – | 0.96 | 0.97 | 1 | 1 | 0.952 |
| NCI-H1563 | 0.637 | 0.636 | 0.676 | 0.597 | 0.59 | 0.506 | 0.537 | 0.541 | 0.483 | 0.464 | – | – | – | – | – | – | – | – | – | – |
| NCI-H1623 | 0.588 | 0.48 | 0.291 | 0.396 | 0.634 | 0.422 | 0.473 | 0.428 | 0.446 | 0.289 | – | – | – | – | – | – | – | – | – | – |
| NCI-H1648 | – | – | – | – | – | – | – | – | – | – | 0.5 | 0.453 | 0.496 | 0.448 | 0.327 | 1.26 | 1.01 | 1.02 | 0.74 | 0.496 |
| NCI-H1703 | – | – | – | – | – | – | – | – | – | – | – | – | – | – | – | 0.377 | 0.513 | 0.419 | 0.401 | 0.421 |
| NCI-H2228 | 0.319 | 0.225 | 0.152 | 0.161 | 0.138 | 0.214 | 0.0886 | – | – | 0.132 | – | – | – | – | – | 0.951 | 0.534 | 0.579 | 0.476 | 0.768 |
